Values after ≈ are worked out from the molar mass of the structure shown.
Molecular target: T1, Mushroom tyrosinase
T1 construct: gene PPO3; commercial native mushroom tyrosinase (Sigma), isoenzyme mixture
Assay: absorbance at […] nm, […] min
Type: biochemical
Details: L-tyrosine substrate (1 mL of 100 mg/L); sodium phosphate buffer; DMSO stock; alpha or beta anomer not stated

- IC50: 56 ± 12 µg/mL (≈ 206 µM)
Structure (SMILES): OC[C@H]1O[C@@H](Oc2ccc(O)cc2)[C@H](O)[C@@H](O)[C@@H]1O [arbutin]

Source: publication PMC6276509, “Evaluation of Tyrosinase Inhibitory, Antioxidant, Antimicrobial, and Antiaging Activities of Magnolia officinalis Extracts after Aspergillus niger Fermentation” (BioMed Research International, 2018)
